From patent US20220304308A1, “METHOD FOR CONTROLLING GROWTH OF GLYPHOSATE-TOLERANT PLANTS” (JIANGSU ROTAM CHEMISTRY CO., LTD., priority 2019, published 2022) come the findings set out here.

Common to all, as to type: in vivo
Data set [1] has as its system soybean plants. As to the kind of experiment: Phytotoxicity test on soybean sown in treated plots at different times after treatment (Example 3). Details: key: EWRC scale 1-9: 1 = no symptoms, 9 = total plant destruction. Here is the method: Sourgrass plants were planted and kept at about 24° C. and 85% humidity throughout the experiment.
The sourgrass plants were treated with water dispersible granule (WG) formulations of nicosulfuron and/or glyphosate as summarised in Table 5.
Soybean seeds were sown separately in each of the treated plots 1 day, 7 days, 14 days, 20 days and 30 days after the treatment.
(§1) In order to quantify the damage caused to the soybean plants, visual analysis of phytotoxicity was conducted and recorded based on the scale proposed by the European Weed Research Council. The extent of damage on this scale varies from 1 to 9, where “1” represents absence of symptoms and “9” represents total plant destruction.
Evaluation was conducted 7 days, 14 days, 21 days and 28 days after emergence of the soybean plants.

The subject of data set [2] is glyphosate-resistant sourgrass (Digitaria insularis). As to the kind of experiment: Post-emergence treatment test on glyphosate-resistant sourgrass, nicosulfuron WG formulations (Example 1). The conditions noted are these: conclusion from Table 2. Here is the method: Post-emergence treatment tests were conducted on glyphosate-resistant sourgrass (Digitaria insularis). Sourgrass plants were planted and kept in a greenhouse at about 24° C. and 85% humidity throughout the experiment.
The WG formulations were each diluted with water prior to treatment of the sourgrass plants.
The herbicidal efficiency of each formulation as determined by visual observation at each of 7, 14 and 20 days after the treatment.
The the efficacy of each formulation is represented by a comparison between the treated plants and the Control plants. A score of 0% represents no herbicidal activity. A score of 100% represents complete herbicidal activity (plants completely killed).

Data set [3] relates to soybean plants. As to the kind of experiment: Phytotoxicity tests on soybean sown 20 days after treatment under conditions X1-X4 (Example 4). The conditions noted are these: Nicosulfuron 75 g/ha, Glyphosate 0 g/ha, 150 L/ha, evaluated 7 days after emergence, EWRC scale 1-9. Here is the method: Sourgrass plants were planted and kept at the conditions summarised in Table 7 below throughout the experiment:
The WG formulations were dispersed in water and applied to the locus of the sourgrass plants at a volumetric rate of 150 L/ha.
Soybean seeds were sown in a greenhouse in the treated plots 20 days after the treatment with the herbicide(s). The period of 20 days was determined by applying Formula I above to the parameters set out above.
as §1
Evaluation was conducted 7 days after emergence of the soybean plants.

In the case of `COc1cc(OC)nc(NC(=O)NS(=O)(=O)c2ncccc2C(=O)N(C)C)n1` [Nicosulfuron, 2-(4,6-dimethoxypyrimidin-2-ylcarbamoylsulfamoyl)-N,N-dimethylnicotinamide], the “Phytotoxicity Level” value in the data set with soybean plants [1] (Nicosulfuron 50 g/ha, Glyphosate 0 g/ha (A3 of Table 5), soybean sown 1 day after treatment, EWRC scale 1 (absence of symptoms) to 9 (total plant destruction)) was 4; in the data set with soybean plants [1] (Nicosulfuron 50 g/ha, Glyphosate 0 g/ha (A3 of Table 5), soybean sown 7 days after treatment, EWRC scale 1-9) it was 3; in the data set on soybean plants [1] (Nicosulfuron 50 g/ha, Glyphosate 0 g/ha (A3 of Table 5), soybean sown 14 days after treatment, EWRC scale 1-9) it was 2; in the data set on soybean plants [1] (Nicosulfuron 50 g/ha, Glyphosate 0 g/ha (A3 of Table 5), soybean sown 20 days after treatment, EWRC scale 1-9) it was 1; with soybean plants [1] (Nicosulfuron 50 g/ha, Glyphosate 0 g/ha (A3 of Table 5), soybean sown 30 days after treatment, EWRC scale 1-9), 1; with soybean plants [1] (Nicosulfuron 75 g/ha, Glyphosate 0 g/ha (C3 of Table 5), soybean sown 1 day after treatment, EWRC scale 1-9) it was 4. In addition, the “Phytotoxicity Level” value in the data set on soybean plants [1] (Nicosulfuron 75 g/ha, Glyphosate 0 g/ha (C3 of Table 5), soybean sown 7 days after treatment, EWRC scale 1-9) turned out to be 4; in the data set on soybean plants [1] (Nicosulfuron 75 g/ha, Glyphosate 0 g/ha (C3 of Table 5), soybean sown 14 days after treatment, EWRC scale 1-9) it was 2; with soybean plants [1] (Nicosulfuron 75 g/ha, Glyphosate 0 g/ha (C3 of Table 5), soybean sown 20 days after treatment, EWRC scale 1-9), 1; with soybean plants [1] (Nicosulfuron 75 g/ha, Glyphosate 0 g/ha (C3 of Table 5), soybean sown 30 days after treatment, EWRC scale 1-9) it was 1; in the data set on soybean plants [3] (conditions X1 (17 ° C., 95% humidity, 8.5 hr sunlight per day), soybean sown 20 days after treatment), 1; with soybean plants [3] (conditions X2 (24 ° C., 85% humidity, 9 hr sunlight per day), sown 20 days after treatment), 1. Moreover, the “Phytotoxicity Level” value in the data set with soybean plants [3] (conditions X3 (32 ° C., 65% humidity, 9.5 hr sunlight per day), sown 20 days after treatment) amounted to 1; with soybean plants [3] (conditions X4 (37 ° C., 30% humidity, 10 hr sunlight per day), sown 20 days after treatment), 1. Also, the “control of sourgrass plants (in words)” value in data set [2] is given as “effective”.
